# Assay results from publication PMC6222789, “CF3-Substituted Mollugin 2-(4-Morpholinyl)-ethyl ester as a Potential Anti-inflammatory Agent with Improved Aqueous Solubility and Metabolic Stability” (Molecules : A Journal of Synthetic Chemistry and Natural …, 2018).
# Where two headings read alike, the source gives them in different places.
# Tests used:
# [1] = target: T1, hERG channel (Homo sapiens, UniProt Q12809); test: hERG channel binding assay (fluorescence polarization)
# T1 construct: purchased Invitrogen PV5365
# Procedure: hERG channel binding assay was performed using Invitrogen’s hERG Fluorescence Polarization Assay kit (PV5365) with Synergy Neo plate reader (BioTek, Winooski, VT, USA). The binding assay was carried out according to the kit manufacturer’s instructions.
# [2] = test system: TNF-α-induced adhesion of U937 monocytic cells to HT-29 cells; test: TNF-α-induced colonic epithelial cell adhesion assay; assay type: cell-based, human
# Procedure: (§1) Synthesized mollugin derivatives were subjected to the colonic epithelial cell adhesion assay, which mimics the initial stage of colon inflammation. The inhibition of TNF-α-induced or IL-6-induced adhesion of U937 monocytic cells to HT-29 cells in 10 μM solution of synthesized molecules was measured, and the results are summarized in Table 1 and Table 2. Mesalazine (2), a commercially available medication for the treatment of IBD, and mollugin were chosen as assay positive controls.
# (§2) HT-29 human colonic epithelial cells and U937 human pre-monocytic cells were grown in RPMI 1640 medium supplemented with 10% FBS, 100 IU/mL penicillin, and 100 µg/mL streptomycin in a humidified incubator under 5% CO2/95% air.
# (§3) U937 monocytic cell adhesion to colonic epithelial cells was evaluated using human U937 pre-monocytic cells, which were prelabeled with 2′,7′-bis(2-carboxyethyl)-5(6)-carboxyfluorescein acetoxymethyl ester (BCECF/AM, 10 μg/mL) for 1 h at 37 °C. HT-29 cells cultured in 24-well plates were pretreated with test compound, 5-ASA, or tofacitinib for 1 h prior to incubation with TNF-α (10 ng/mL) and IL-6 (5 ng/mL) for an additional 3 h. Cells were then co-incubated with BCECF/AM-prelabeled U937 cells (1 × 10^6 cells/well) for 30 min at 37 °C. Non-adhering U937 cells were removed, and the HT-29 cells and adherent U937 cells were washed twice with PBS. Images were captured and processed with a Nikon ECLIPSE TE2000-U microscope and NIS-Elements F software (Nikon, Tokyo, Japan). For quantitative analysis, other sets of cells were lysed in 0.1% Triton X-100 in Tris (0.1 M), and the fluorescence was measured using a fluorescence-detecting microplate reader (Promega , Madison, WI, USA) at […]. Experiments were performed in triplicate and repeated at least three times independently.
# [3] = test system: IL-6-induced adhesion of U937 monocytic cells to HT-29 cells; test: IL-6-induced colonic epithelial cell adhesion assay; assay type: cell-based, human
# Procedure: as §1, §2, §3
# [4] = Metabolic stability, rat liver microsomes; assay type: in vitro ADME; conditions: for Metabolic Stability (% Remain, 30 min) Rat: 1 μM
# Procedure: (§4) Pooled human liver microsomes (150 donor) and dog, rat, mouse liver microsomes were obtained from BD Gentest Co. (Woburn, MA, USA). NADPH regeneration system was obtained from Promega. S-Mephenytoin, 4-hydroxymephenytoin, and 1’-hydroxymidazolam were purchased from Ultrafine Chemical Co. (Manchester, UK). All other chemicals and solvents were of the highest grade available. The metabolic stability assay was performed by incubation of human or selected animal liver microsomes (most often dog, rat and mouse), at 37 °C with a test compound at a final concentration of 1 μM, in the presence of 0.5 mg/mL microsomal protein and NADPH regeneration system, in a total volume of 100 μL of 100 mM phosphate buffer, pH 7.4. The incubation was started by the addition of NADPH regeneration system and terminated with 40 μL of ice-cold acetonitrile at 0 and 30 min. Precipitated proteins were removed by centrifugation at 10,000× g for 5 min at 4 °C. Aliquots of the supernatant were injected onto an LC-MS/MS system. Incubations terminated prior to the addition of NADPH regeneration system (time point 0 min) were used as standards, defined as 100%. Percent of the parent compound remaining was calculated by comparing peak area.
# [5] = Metabolic stability, dog liver microsomes; assay type: in vitro ADME; conditions: for Metabolic Stability (% Remain, 30 min) Dog: 1 μM
# Procedure: as §4
# [6] = Plasma stability, human plasma; assay type: in vitro ADME; conditions: 37 °C, 1 μM
# Procedure: (§5) The plasma stability assay was performed by incubation of human or rat plasma with a test compound in a final concentration of 1 μM for 120 min at 37 °C. The incubation was terminated by addition of 40 μL of ice-cold acetonitrile and vortexing for 5 min. The precipitated proteins were removed by centrifugation at 14,000× g for 5 min at 4 °C. Aliquots of the supernatant were injected onto a Shimadzu Nexera XR LC system. Percentages of the parent compound remaining were calculated by comparing peak areas using the Xcalibur software (version 1.6.1, Waltham, MA, USA).
# [7] = Metabolic stability, mouse liver microsomes; assay type: in vitro ADME; conditions: for Metabolic Stability (% Remain, 30 min) Mouse: 1 μM
# Procedure: as §4
# [8] = Plasma stability, rat plasma; assay type: in vitro ADME; conditions: for Plasma Stability (% Remain, 2 h) Rat: 37 °C, 1 μM
# Procedure: as §5
# [9] = Metabolic stability, human liver microsomes; assay type: in vitro ADME; conditions: 1 μM
# Procedure: as §4
# [10] = test system: TNF-α-induced adhesion of U937 monocytic cells to HT-29 cells; parameters: method as in PMID 19765578; conditions: cell adhesion assay and IBD animal model; cited from earlier work
# [11] = test system: Serum Amyloid A (SAA); test: Serum SAA level in DSS-induced colitis mouse model (ELISA); assay type: in vivo; conditions: 4% DSS-induced mouse model; mesalazine 20 mM; ELISA
# Procedure: The level of Serum Amyloid A (SAA) was measured using a mouse SAA ELISA kit according to the manufacturer’s instructions (E-90SAA, Immunology Consultants Laboratory, Inc., Portland, OR, USA). All samples were assayed in duplicate. The concentrations of SAA were determined by comparison to serial dilutions of purified SAA calibrator.
# Figure 2 Analysis of mouse serum amyloid A (SAA) level. Effect of 6d on the level of SAA in the 4% dextran sulfate sodium (DSS)-induced mouse model. The level of SAA in serum was determined by ELISA. The control mice received water + vehicle (water), and the treated groups received 4% DSS + vehicle or DSS with mesalazine (20 mM), 6d (10 μM), or 15c (10 μM). TEXT PRINTED IN THE PICTURE: vehecle: mSS assay (ng/ml): 252.08 | vehecle: mSS assay (ng/ml): 732.93 (4% DSS) | 2: mSS assay (ng/ml): 788.86 (4% DSS) | 6d: mSS assay (ng/ml): 295.77 (4% DSS) | 15c: mSS assay (ng/ml): 300.95 (4% DSS)
# [12] = human, Invitrogen hERG Fluorescence Polarization Assay kit (PV5365)
# [13] = Homo sapiens, Epithelial cell, U937 adhesion to HT-29 cells, TNF-α-induced
# [14] = Homo sapiens, Epithelial cell, U937 adhesion to HT-29 cells, IL-6-induced
# T1 sequence (Q12809 whole entry): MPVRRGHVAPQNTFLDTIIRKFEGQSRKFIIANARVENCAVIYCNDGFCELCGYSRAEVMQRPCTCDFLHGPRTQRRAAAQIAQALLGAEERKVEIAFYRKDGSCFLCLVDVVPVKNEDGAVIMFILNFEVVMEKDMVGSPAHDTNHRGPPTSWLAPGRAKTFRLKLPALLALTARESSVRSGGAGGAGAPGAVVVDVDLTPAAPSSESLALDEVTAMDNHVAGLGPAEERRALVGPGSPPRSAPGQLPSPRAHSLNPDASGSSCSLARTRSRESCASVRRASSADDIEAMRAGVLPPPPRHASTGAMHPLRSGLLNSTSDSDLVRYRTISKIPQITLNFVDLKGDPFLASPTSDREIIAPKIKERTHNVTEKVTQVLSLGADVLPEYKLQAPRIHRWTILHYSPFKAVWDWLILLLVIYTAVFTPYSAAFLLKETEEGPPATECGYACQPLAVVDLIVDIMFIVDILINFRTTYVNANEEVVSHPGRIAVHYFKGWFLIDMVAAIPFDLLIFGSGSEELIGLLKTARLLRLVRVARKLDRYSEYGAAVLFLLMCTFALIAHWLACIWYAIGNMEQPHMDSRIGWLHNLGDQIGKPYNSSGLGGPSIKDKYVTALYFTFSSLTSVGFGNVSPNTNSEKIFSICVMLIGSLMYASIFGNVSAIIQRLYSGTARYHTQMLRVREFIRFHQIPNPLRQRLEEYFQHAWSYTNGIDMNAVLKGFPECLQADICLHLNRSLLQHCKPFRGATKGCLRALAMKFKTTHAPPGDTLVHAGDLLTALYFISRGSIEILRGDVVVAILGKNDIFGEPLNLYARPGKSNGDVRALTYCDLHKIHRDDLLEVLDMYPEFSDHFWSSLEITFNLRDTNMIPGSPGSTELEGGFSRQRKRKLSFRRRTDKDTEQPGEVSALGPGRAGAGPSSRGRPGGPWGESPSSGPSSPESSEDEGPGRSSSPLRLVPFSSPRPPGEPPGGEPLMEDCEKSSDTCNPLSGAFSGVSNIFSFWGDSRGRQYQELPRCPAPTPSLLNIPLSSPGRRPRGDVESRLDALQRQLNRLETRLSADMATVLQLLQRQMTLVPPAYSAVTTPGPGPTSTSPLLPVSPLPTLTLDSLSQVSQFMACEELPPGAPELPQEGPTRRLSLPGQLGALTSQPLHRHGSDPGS
Structure (SMILES),IC50 [1] [µM],"inhibition at 10 µM [2, 13] [%]","inhibition at 10 µM [3, 14] [%]","Metabolic Stability (% Remain, 30 min) Rat [4] [% Remain]","Metabolic Stability (% Remain, 30 min) Dog [5] [% Remain]","Plasma Stability (% Remain, 2 h) Human [6] [% Remain]","Metabolic Stability (% Remain, 30 min) Mouse [7] [% Remain]","Plasma Stability (% Remain, 2 h) Rat [8] [% Remain]","Metabolic Stability (% Remain, 30 min) Human [9] [% Remain]",further results
"CN1CCN(CCCOC(=O)c2c3c(c4ccccc4c2O)OC(C)(C)C=C3)CC1 [6i, 3-(4-Methylpiperazin-1-yl)propyl 6-hydroxy-2,2-dimethyl-2H-benzo[h]chromene-5-carboxylate]",5.3,58.5 ± 6.4,27.6 ± 4.2,–,–,–,–,–,–,"IC50 [1, 12]: 5 µM"
"CN1CCN(CCOC(=O)c2c3c(c4ccccc4c2O)OC(C)(C)C=C3)CC1 [6h, 2-(4-Methylpiperazin-1-yl)ethyl 6-hydroxy-2,2-dimethyl-2H-benzo[h]chromene-5-carboxylate]",3.3,42.2 ± 6.4,18.2 ± 3.1,23,11,79,9,89,76,"IC50 [1, 12]: 3 µM; inhibition of TNF-α-induced monocyte-epithelial adhesion ([2]; 10 μM): good % inhibition; inhibition of IL-6-induced monocyte-epithelial adhesion ([3]; 10 μM): reduced % inhibition"
"COC(=O)c1c2c(c3ccccc3c1O)OC(C)(C)C=C2 [compound 1, mollugin]",> 10,37.8 ± 5.7,40.8 ± 6.2,19,33,92,40,16,33,metabolic stability with rat liver microsomes [4]: generally unstable; improved efficacy over mesalazine [10]: at least 1000 fold; metabolic stability with dog liver microsomes [5]: generally unstable; metabolic stability with mouse liver microsomes [7]: generally unstable; stability in rat plasma [8]: unstable
"CC1(C)C=Cc2c(C(=O)OCCCN3CCOCC3)c(O)c3ccccc3c2O1 [6e, 3-Morpholinopropyl 6-hydroxy-2,2-dimethyl-2H-benzo[h]chromene-5-carboxylate]",> 10,40.1 ± 3.5,26.6 ± 5.1,16,42,100,24,94,36,–
"CN1CCC(OC(=O)c2c3c(c4ccccc4c2O)OC(C)(C)C=C3)CC1 [6g, 1-Methylpiperidin-4-yl 6-hydroxy-2,2-dimethyl-2H-benzo[h]chromene-5-carboxylate]",> 10,54.8 ± 5.2,38.9 ± 5,23,36,100,14,100,78,–
"CN1CCC[C@@H]1COC(=O)c1c2c(c3ccccc3c1O)OC(C)(C)C=C2 [6f, (R)-(1-Methylpyrrolidin-2-yl)methyl 6-hydroxy-2,2-dimethyl-2H-benzo[h]chromene-5-carboxylate]",> 10,48.3 ± 6.2,38.2 ± 5.1,13,12,100,11,99,58,–
"Nc1ccc(O)c(C(=O)O)c1 [compound 2, 5-Aminosalicylic acid, reference compound]",–,–,–,–,–,–,–,–,–,"serum SAA level (mSS assay) [11]: 788.86 ng/mL; inhibition at 20000 µM ([2]; Homo sapiens, Epithelial cell, at 20 mM, U937 adhesion to HT-29 cells, TNF-α-induced): ~30%; % Inhibition TNF-α ([2]; at 20 mM, U937 adhesion to HT-29 cells, TNF-α-induced, listed as 2 (5-ASA)): 28.8 ± 7.7 (at 20 mM) %; inhibition at 20000 µM ([3]; Homo sapiens, Epithelial cell, at 20 mM, U937 adhesion to HT-29 cells, IL-6-induced): ~30%; % Inhibition IL-6 ([3]; at 20 mM, U937 adhesion to HT-29 cells, IL-6-induced, listed as 2 (5-ASA)): 32.6 ± 7.3 (at 20 mM) %"
"COC(=O)c1c2c(c3ccc(C)cc3c1O)OC(C)(C)C=C2 [14b, Methyl 6-hydroxy-2,2,8-trimethyl-2H-benzo[h]chromene-5-carboxylate]",–,29.8 ± 7.2,23.4 ± 2.5,51,4,100,19,1,88,–
